Tests used:
Assay type in all cases: cell-based, SARS-CoV-2
[1] = test system: pseudovirus with alpha, beta or gamma S protein mutations
[2] = test system: pseudovirus with Delta S protein mutations
[3] = test system: pseudoviruses with omicron S protein mutations
[4] = test system: pseudovirus with S protein D614G, E484K, UK, SA, BZ variants

| Molecule | rCHI3L1 stimulatory effects on pseudovirus uptake [1] | uptake of pseudovirus in cells treated with and without rCHI3L1 [1] | CHI3L1-stimulated pseudovirus uptake [2] | pseudovirus uptake when exogenous CHI3L1 was not administered [2] | epithelial cell uptake of pseudoviruses [3] | cellular integration of Spike proteins [4] | uptake of pseudovirus [2] | uptake of pseudoviruses [3] | uptake of pseudoviruses in cells treated with and without rCHI3L1 [1] |
| --- | --- | --- | --- | --- | --- | --- | --- | --- | --- |
| C[C@H]1O[C@H](O[C@H]2[C@H](O)[C@@H](O)[C@@H](O)[C@H](O)[C@@H]2O)[C@@H](N)C[C@@H]1NC(=N)C(=O)O [Kasugamycin, 2-amino-2-[(2R,3S,5S,6R)-5-amino-2-methyl-6-[(2R,3S,5S,6S)-2,3,4,5,6-pentahydroxycyclohexyl]oxyoxan-3-yl]iminoacetic acid] | markedly decreased | markedly diminished | abrogated | diminished | inhibited |  |  |  |  |
| rhCHI3L1: recombinant human CHI3L1 (chitinase 3 like 1) protein, from R&D Inc. or generated at Brown University |  |  |  |  |  | stimulated | potent stimulator | potent stimulator |  |
| FRG: murine monoclonal anti-CHI3L1 antibody raised against amino acid 223-234 of human CHI3L1; heavy chain SEQ ID NO: 13, light chain SEQ ID NO: 14 (antibody, V domains shown) VH: QIQLVQSGPELKKPGETVKISCKASGYTFTNYGMNWVKQAPGKGLKWMGWINTYTGEPTYADDFKGRFAFSLETSASTAYLQINNLRNEDMSTYFCARLGYGKFYVMDYWGQGTSVTVSS VL: DVVMTQTPLSLPVSLGDQASISCRSSQSLVHSNGNTYLHWYLQKPGQSPKLLIYKVSNRFSGVPDRFSGSGSGTDFTLKISRVEAEDLGVYFCSQSTHVTWTFGGGTKLEIK |  | markedly diminished | abrogated | diminished | inhibited |  |  |  | markedly diminished |

— patent US20230312752A1 (Brown University, priority 2021, published 2023)
